row,Structure (SMILES),melting point [°C]
1,Cc1oc(-c2ccccc2)nc1CCOc1ccc(CCl)cc1,88 to 90
2,CCCCCCCCc1cccc(CCC(N)(CO)CO)c1,89 to 92
3,c1ccc(-c2ccc3[nH]nc(Nc4nccs4)c3c2)nc1,234 to 236
4,CN1CCN(c2ncnc3oc(-c4ccc(N)nc4)c(-c4ccccc4)c23)CC1,229 to 231
5,Cc1ccc(NC(=O)N(C)Cc2cccc3c2C(=O)N(C2CCC(=O)NC2=O)C3=O)cc1C (stereo not given),202 to 204
6,O=C1C=C(NC(=O)C(=O)c2cn(Cc3ccc(F)cc3)c3ccccc23)CO1,260 to 262
7,CCOc1ccc(/C=C(\C)C(=O)O)cc1,180
8,N#Cc1ccc(C(O)c2occc(=O)c2OCc2ccccc2)cc1 (stereo not given),135 to 138
9,Nc1sc2c(c1C(=O)c1ccc(F)cc1)CCN(C(=O)OCc1ccccc1)C2,90 to 92
10,CN(C)CCNc1ncc(C(=O)N(C)Cc2cc(C(F)(F)F)cc(C(F)(F)F)c2)c(-c2ccccc2)n1,110
11,CCN1CCc2cc3ccccc3n2CC1,44 to 46
12,CON1C(=O)CC2(CCN(CCNC(=O)c3cccnc3)CC2)C1=O,112 to 119
13,CN1CCN2c3ncc(Br)cc3Cc3ccccc3C2C1 (stereo not given),126 to 128
14,CNC(=O)c1cc(SC)cc(N)n1,89 to 91
15,COc1ccc(CC(O)CO)c(OCc2ccccc2)c1 (stereo not given),82 to 86
16,Cc1cc(-n2cncn2)c2cccc(OCc3c(Cl)ccc(S(=O)(=O)N4CCC[C@H]4C(=O)NCC4CCN(Cc5ccccn5)CC4)c3Cl)c2n1,118
17,Cc1cc2c(c(C)c1O)OC[C@@H](N1CCC(O)(c3ccc(F)cc3)CC1)[C@H]2O (relative stereo),226 to 227
18,CSc1cc(C)nc(SC)c1NC(=O)CCCCCCSc1nc2ccccc2[nH]1,189 to 192
19,CC(C)(C)OC(=O)NCc1ccc2cc(O)ccc2c1,173 to 174
20,O=C(O)Cc1ccc2oc(-c3ccccc3)nc2c1,175
21,CCOC(=O)c1cc(NC(C)=O)c(=O)[nH]c1C(=O)OCC,149 to 151
22,Cn1c([N+](=O)[O-])cnc1COc1ccc([N+](=O)[O-])cc1Cl,138
23,COc1ccc(C(=O)C#CCO)c(OC)c1OC,82 to 83
24,CCCOc1nc(Nc2ccc(F)c(Cl)c2)nc(NC2CCN(S(C)(=O)=O)CC2)n1,199 to 201
25,CCOC(=O)c1cc(OC)c2c(C)c(CCN(CC)CC)c(=O)oc2c1Br,150 to 151

row,Structure (SMILES),melting point [°C]
1,O=C(Nc1ccc(C(=O)N2C[C@@H]3CCCN3c3ccccc32)cc1)c1ccccc1-c1ccccc1,200
2,CC1=Nc2c3cc(C(=O)O)nc-3ccn2C1,325 to 327
3,CCOC(=O)c1cc(-c2csc(-c3ccnc(N)c3)n2)c(=O)[nH]c1C,> 260
4,COc1ccc(CC(=O)NC(NC(=NC#N)Nc2cc(C)ccc2C)C(C)(C)C)cc1OC (stereo not given),93 to 94
5,O=C(Nc1c(Cl)cncc1Cl)c1ccc(OCC2CC2)c2oc3ccccc3c12,242
6,Cn1c(CNC[C@H]2CCCO2)cc2cc(NC(=O)c3ccc(OCC4CC4)cc3)ccc21,138 to 139
7,c1ccc(C2=NC(c3ccccn3)(c3ccccn3)N=C2c2ccccc2)cc1,214 to 216
8,O=C1c2ccccc2C(=O)N1c1cc(CCl)ccn1,152 to 153
9,NC(=O)CNC(=O)c1cccc(-c2ccc3c(c2)N(c2cccc(Cl)c2Cl)CC3)c1,203 to 204
10,N#Cc1cnc2cc(C=O)sc2c1Cl,188 to 189
11,O=S1(=O)c2cccc3cccc(c23)N1CCCN1CCC(c2ccc(Cl)cc2)CC1,111
12,CNS(=O)(=O)Oc1ccccc1,43 to 45
13,Cc1nc2c(n1C)CC(C(=O)N(C)C)CC2=O (stereo not given),190 to 194
14,c1cc(P(CCP(c2ccncc2)c2ccncc2)c2ccncc2)ccn1,183 to 185
15,COC(=O)N1CCc2ccc3cc[nH]c3c2CC1,169 to 171
16,Oc1ccc(Nc2cc(-c3cn(C(c4ccccc4)(c4ccccc4)c4ccccc4)nc3-c3ccccn3)ccn2)cc1,198
17,O=C(NCc1ccc(Cl)cc1)c1noc2ccc(C#CCO)cc2c1=O,117 to 120
18,COc1ccc(COc2ncccc2C(=O)O)cc1OC1CC2CCC1C2 (stereo not given),50
19,C=Cc1cc(C)cc(C)c1CC(=O)N(C)C1(C(=O)OC)CCN(OC)CC1,160 to 162
20,COc1ccc(Nc2nn3c(-c4ccc(OC)cc4)nnc3c3ccccc23)cc1,301 to 304
21,COC(=O)C1=NNC(C)=C(C(=O)OC)C1c1cc([N+](=O)[O-])ccc1Cl (stereo not given),193 to 194
22,CS(=O)(=O)Cc1c(C(=O)O)ccc2c1OC(F)(F)O2,107 to 109
23,CS(=O)(=O)c1ccc(-c2cc(Br)nc(C(F)(F)F)c2-c2ccc(F)cc2)cc1,188 to 189
24,O=C1COCCOCC(=O)NCCOCCOCCOCCN1,90 to 91
25,CCC/C=C/c1ccc(C#CC(C)(C)O)c(F)c1,62

# Source: a melting point compilation (Tetko et al.; mined from patent text by program, amines drawn as free bases though some values may be those of a salt)
